The values below come from patent US10221173B2, “Chemical compounds” (AstraZeneca AB, priority 2017, dated 2019).

Structures are written as SMILES. In brackets after ≈: the same amount, converted by molar mass.

The term IC50 denotes the concentration that gives 50% inhibition. Usually solubility stands for the concentration that dissolves in the medium under given conditions. The term logD denotes lipophilicity at a set pH, counting ionised and neutral species. The low end stands for lower lipophilicity, the high end for higher lipophilicity.

The target in one data set is hERG potassium channel (Homo sapiens (Human), UniProt Q12809).
hERG potassium channel, sequence (Q12809 whole entry): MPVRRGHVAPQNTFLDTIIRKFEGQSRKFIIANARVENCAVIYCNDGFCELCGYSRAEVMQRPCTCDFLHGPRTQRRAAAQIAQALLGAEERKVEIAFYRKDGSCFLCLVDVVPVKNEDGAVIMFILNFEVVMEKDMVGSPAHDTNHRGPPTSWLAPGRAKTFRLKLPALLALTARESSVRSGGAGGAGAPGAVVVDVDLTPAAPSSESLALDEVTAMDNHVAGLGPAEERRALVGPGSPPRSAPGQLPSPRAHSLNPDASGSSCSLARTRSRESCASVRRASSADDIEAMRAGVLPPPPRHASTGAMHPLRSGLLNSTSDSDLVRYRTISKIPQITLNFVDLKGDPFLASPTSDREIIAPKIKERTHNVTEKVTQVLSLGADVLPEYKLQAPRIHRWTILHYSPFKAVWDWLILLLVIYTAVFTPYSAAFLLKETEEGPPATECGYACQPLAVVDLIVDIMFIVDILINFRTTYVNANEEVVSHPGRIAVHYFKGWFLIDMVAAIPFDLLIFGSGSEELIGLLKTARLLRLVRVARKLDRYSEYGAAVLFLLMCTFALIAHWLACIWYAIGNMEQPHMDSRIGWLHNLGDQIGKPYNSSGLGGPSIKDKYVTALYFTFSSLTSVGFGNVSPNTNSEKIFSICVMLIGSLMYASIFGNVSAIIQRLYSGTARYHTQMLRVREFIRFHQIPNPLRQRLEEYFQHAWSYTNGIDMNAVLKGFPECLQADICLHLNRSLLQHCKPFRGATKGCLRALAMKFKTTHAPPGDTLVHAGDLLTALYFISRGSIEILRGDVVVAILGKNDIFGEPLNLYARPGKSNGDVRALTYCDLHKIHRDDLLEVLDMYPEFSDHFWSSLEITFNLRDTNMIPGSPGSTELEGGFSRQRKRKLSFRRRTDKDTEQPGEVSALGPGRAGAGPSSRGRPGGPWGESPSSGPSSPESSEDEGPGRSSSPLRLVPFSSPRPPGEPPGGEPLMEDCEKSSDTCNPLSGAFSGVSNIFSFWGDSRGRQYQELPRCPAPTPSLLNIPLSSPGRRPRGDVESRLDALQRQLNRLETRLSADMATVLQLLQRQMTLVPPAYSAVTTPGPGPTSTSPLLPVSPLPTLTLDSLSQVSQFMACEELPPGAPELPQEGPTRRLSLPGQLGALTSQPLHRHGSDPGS
Data set [1] in a line: Thermodynamic solubility (shake-flask). Format: physicochemical. As to conditions: aqueous phosphate buffer, 25 °C, pH 7.4, aqueous buffer, thermodynamic from solid, phosphate buffer pH 7.4, 24 hours.
The target of data set [2] is recombinant human Estrogen Receptor alpha ligand binding domain (ER alpha-LBD (GST)) (Homo sapiens (Human), UniProt P03372). As to the kind of experiment: ERα binding assay (LanthaScreen TR-FRET competition). For orientation: Time-resolved FRET reads energy transfer from a long-lived donor to a nearby acceptor.
recombinant human Estrogen Receptor alpha ligand binding domain (ER alpha-LBD (GST)), sequence (P03372 307-554): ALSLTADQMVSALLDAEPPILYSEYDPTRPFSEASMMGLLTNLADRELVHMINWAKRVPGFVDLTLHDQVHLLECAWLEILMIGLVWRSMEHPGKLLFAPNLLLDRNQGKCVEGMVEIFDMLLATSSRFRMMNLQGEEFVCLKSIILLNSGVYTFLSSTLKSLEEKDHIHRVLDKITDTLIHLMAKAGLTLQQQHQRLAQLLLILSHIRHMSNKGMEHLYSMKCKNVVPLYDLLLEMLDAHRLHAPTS
Procedure: The ability of compounds to bind to isolated Estrogen Receptor Alpha Ligand binding domain (ER alpha—LBD (GST)) was assessed in competition assays using a LanthaScreen Time-Resolved Fluorescence Resonance Energy Transfer (TR-FRET) detection end-point. For the LanthaScreen TR-FRET endpoint, a suitable fluorophore (Fluormone ES2, ThermoFisher, Product code P2645) and recombinant human Estrogen Receptor alpha ligand binding domain, residues 307-554 (expressed and purified in-house) were used to measure compound binding. The assay principle is that ER alpha-LBD (GST) is added to a fluorescent ligand to form a receptor/fluorophore complex. A terbium-labelled anti-GST antibody (Product code PV3551) is used to indirectly label the receptor by binding to its GST tag, and competitive binding is detected by a test compound's ability to displace the fluorescent ligand, resulting in a loss of TR-FRET signal between the Tb-anti-GST antibody and the tracer. The assay was performed as follows with all reagent additions carried out using the Beckman Coulter BioRAPTR FRD microfluidic workstation: • 1. Acoustic dispense 120 nL of the test compound into a black low volume 384 well assay plates. • 2. Prepare 1× ER alpha-LBD/Tb-antiGST Ab in ES2 screening buffer and incubate for 15 minutes. • 3. […] Cover the assay plate to protect the reagents from light and evaporation, and incubate at room temperature for 4 hours. • 5. Excite at 337 nm and measure the fluorescent emission signal of each well at 490 nm and 520 nm using the BMG PheraSTAR.
TR-FRET dose response data obtained with each compound was exported into a suitable software package (such as Origin or Genedata) to perform curve fitting analysis. Competitive ER alpha binding was expressed as an IC50 value.
The nature of data set [3]: Log D (shake flask, 1-octanol/aqueous buffer). Format: physicochemical. Conditions: 1-octanol/aqueous buffer, pH 7.4, pH 7.4.
Data set [4] addresses Estrogen Receptor (ERα) in MCF-7 cells (Homo sapiens (Human), UniProt P03372). Briefly: MCF-7 ER down-regulation assay (immuno-fluorescence). The format is cell-based. As to conditions: for % downregulation (in brackets): maximum downregulation.
Data set [5] in a line: Human plasma protein binding (equilibrium dialysis). Format: in vitro ADME. (In general: In equilibrium dialysis only unbound substance equilibrates across the membrane.)

Estrogen Receptor (ERα) in MCF-7 cells, sequence (P03372 whole entry): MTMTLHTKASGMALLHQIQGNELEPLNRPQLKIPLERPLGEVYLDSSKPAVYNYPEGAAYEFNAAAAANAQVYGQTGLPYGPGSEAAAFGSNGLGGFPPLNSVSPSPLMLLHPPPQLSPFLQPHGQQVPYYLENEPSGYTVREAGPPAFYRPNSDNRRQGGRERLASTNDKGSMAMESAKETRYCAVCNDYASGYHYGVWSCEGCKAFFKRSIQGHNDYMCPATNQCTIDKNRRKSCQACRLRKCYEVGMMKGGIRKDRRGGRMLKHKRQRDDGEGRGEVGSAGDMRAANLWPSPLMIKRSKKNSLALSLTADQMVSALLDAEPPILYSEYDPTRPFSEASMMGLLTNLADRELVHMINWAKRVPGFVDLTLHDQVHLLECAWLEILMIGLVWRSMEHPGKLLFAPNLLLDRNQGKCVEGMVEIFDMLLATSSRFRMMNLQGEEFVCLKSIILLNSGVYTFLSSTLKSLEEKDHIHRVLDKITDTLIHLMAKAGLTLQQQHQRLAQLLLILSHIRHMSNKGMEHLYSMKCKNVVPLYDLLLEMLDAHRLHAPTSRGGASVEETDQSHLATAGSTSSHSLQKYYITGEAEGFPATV

`C[C@@H]1Cc2c([nH]c3ccccc23)[C@@H](c2cc(OCCNCCCF)ncc2F)N1CC(F)(F)F` [Example 39, 3-fluoroN-(2-((5-fluoro-4-((1R,3R)-3-methyl-2-(2,2,2-trifluoroethyl)-2,3,4,9-tetrahydro-1H-pyrido[3,4-b]indol-1-yl)pyridin-2-yl)oxy)ethyl)propan-1-amine]: the values for the IC50 (against hERG potassium channel; in data set [2]; in data set [4]) were 3900 nM, 1.4 nM and 0.26 nM, respectively. The molecule also returned a solubility at 24 h in data set [1] of 259 µM (≈ 125 µg/mL). Further, the logD in data set [3] was 3.6.
For `COc1cnc(NCCNCCCF)cc1[C@@H]1c2[nH]c3ccccc3c2C[C@@H](C)N1CC(F)(F)F` [Example 42] the same measures were 7100 nM, 3.7 nM, 1.9 nM, 349 µM (≈ 172 µg/mL) and 2.9.
For `COc1ccc(O[C@@H](C)CNCCCF)cc1[C@@H]1c2[nH]c3ccccc3c2C[C@@H](C)N1CC(F)(F)CO` [Example 48, 2,2-difluoro-3-((1R,3R)-1-(5-(((S)-1-((3-fluoropropyl)amino)propan-2-yl)oxy)-2-methoxyphenyl)-3-methyl-1,3,4,9-tetrahydro-2H-pyrido[3,4-b]indol-2-yl)propan-1-ol], the IC50 against hERG potassium channel came to 2700 nM; in data set [2] it was 4.4 nM; in data set [4], 13 nM. In data set [1], this molecule gave a solubility at 24 h of 307 µM (≈ 160 µg/mL). The pH-dependent lipophilicity (logD) in data set [3] came out at 2.8.
With `C[C@@H]1Cc2c([nH]c3ccccc23)[C@@H](c2nccc(OCCNCCCF)c2Cl)N1CC(F)(F)F` [Example 93, N-(2-((3-chloro-2-((1S,3R)-3-methyl-2-(2,2,2-trifluoroethyl)-2,3,4,9-tetrahydro-1H-pyrido[3,4-b]indol-1-yl)pyridin-4-yl)oxy)ethyl)-3-fluoropropan-1-amine], on hERG potassium channel, the IC50 is 6600 nM. In data set [1], this molecule yielded a solubility at 24 h of 0.5 µM (≈ 0.249 µg/mL). Besides, in data set [5], the “Human plasma protein binding (% free)” value stood at 0.34 % free. In data set [3], this molecule displayed a logD of 4.3.
`C[C@@H]1Cc2c([nH]c3ccccc23)[C@@H](c2nccc(OCCNCCCF)c2F)N1CC(F)F` [Example 98, N-(2-((2-((1S,3R)-2-(2,2-difluoroethyl)-3-methyl-2,3,4,9-tetrahydro-1H-pyrido[3,4-b]indol-1-yl)-3-fluoropyridin-4-yl)oxy)ethyl)-3-fluoropropan-1-amine]: the IC50 is over 32000 nM against hERG potassium channel, 1.9 nM in data set [2] and 1.2 nM in data set [4]. The solubility at 24 h in data set [1] is 594 µM (≈ 276 µg/mL). In addition, the logD in data set [3] is 2.3.
The corresponding values for `C[C@@H]1Cc2c([nH]c3ccccc23)[C@@H](c2nccc(OCCNCCCF)c2F)N1CC1(F)CC1` [Example 99, 3-fluoro-N-(2-((3-fluoro-2-((1S,3R)-2-((1-fluorocyclopropyl)methyl)-3-methyl-2,3,4,9-tetrahydro-1H-pyrido[3,4-b]indol-1-yl)pyridin-4-yl)oxy)ethyl)propan-1-amine] are 20000 nM, 3.4 nM, 3.8 nM, 285 µM (≈ 135 µg/mL) and 2.1.
For the molecule `C[C@@H]1Cc2c([nH]c3ccccc23)[C@@H](c2nccc(OCCNCCCF)c2F)N1CC1(F)COC1` [Example 100, 3-fluoro-N-(2-((3-fluoro-2-((1S,3R)-2-((3-fluorooxetan-3-yl)methyl)-3-methyl-2,3,4,9-tetrahydro-1H-pyrido[3,4-b]indol-1-yl)pyridin-4-yl)oxy)ethyl)propan-1-amine], the IC50 against hERG potassium channel was found to be 19000 nM; in data set [2] it was 5.2 nM; in data set [4] it was 11 nM. In addition, the solubility at 24 h in data set [1] is over 1000 µM. In data set [3], this molecule displayed a logD of 2.5.
Molecule `C[C@@H]1Cc2c([nH]c3ccccc23)[C@@H](c2ccnc(OCCNCCCF)c2Cl)N1CC(F)(F)CO` [Example 104, 3-((1R,3R)-1-(3-chloro-2-(2-((3-fluoropropyl)amino)ethoxy)pyridin-4-yl)-3-methyl-1,3,4,9-tetrahydro-2H-pyrido[3,4-b]indol-2-yl)-2,2-difluoropropan-1-ol] displayed a solubility at 24 h in data set [1] of 431 µM (≈ 220 µg/mL). Moreover, the IC50 in data set [2] was determined as 0.72 nM; in data set [4] it was 0.17 nM. In addition, the “Human plasma protein binding (% free)” value in data set [5] is on record as 2.8 % free. Also, the logD in data set [3] amounted to 3.
`Cc1c([C@@H]2c3[nH]c4ccccc4c3C[C@@H](C)N2CC(F)(F)F)ccnc1OCCNCCCF` [Example 106, 3-fluoro-N-(2-((3-methyl-4-((1R,3R)-3-methyl-2-(2,2,2-trifluoroethyl)-2,3,4,9-tetrahydro-1H-pyrido[3,4-b]indol-1-yl)pyridin-2-yl)oxy)ethyl)propan-1-amine] registered a solubility at 24 h in data set [1] of 264 µM (≈ 126 µg/mL). Further, the IC50 in data set [2] is 0.92 nM; in data set [4] it was 0.095 nM. Further, the “Human plasma protein binding (% free)” value in data set [5] was 0.34 % free. In addition, the logD in data set [3] worked out at 3.9.
The corresponding values for `C[C@@H]1Cc2c([nH]c3ccc(F)cc23)[C@@H](c2c(F)cnc(OCCNCCCF)c2F)N1CC1(F)CC1` [Example 109, N-(2-((3,5-difluoro-4-((1R,3R)-6-fluoro-2-((1-fluorocyclopropyl)methyl)-3-methyl-2,3,4,9-tetrahydro-1H-pyrido[3,4-b]indol-1-yl)pyridin-2-yl)oxy)ethyl)-3-fluoropropan-1-amine] are 176 µM (≈ 89.5 µg/mL), 1.2 nM, 0.41 nM, 1.9 % free and over 3.6.
In turn, `Cc1c(OCCNCCCF)ncnc1[C@@H]1c2[nH]c3ccccc3c2C[C@@H](C)N1CC(F)(F)CO` [Example 115, 2,2-difluoro-3-((1S,3R)-1-(6-(2-((3-fluoropropyl)amino)ethoxy)-5-methylpyrimidin-4-yl)-3-methyl-1,3,4,9-tetrahydro-2H-pyrido[3,4-b]indol-2-yl)propan-1-ol] gave a solubility at 24 h in data set [1] of 983 µM (≈ 483 µg/mL). Further, the IC50 in data set [2] came out at 1 nM; in data set [4], 0.31 nM. Besides, the “Human plasma protein binding (% free)” value in data set [5] is 11 % free. In data set [3], this molecule had a logD of 2.1.
Molecule `Cc1c(OCCNCCCF)ccc(F)c1[C@@H]1c2[nH]c3ccccc3c2C[C@@H](C)N1CC(F)(F)C(=O)O` [Example 118, 2,2-difluoro-3-((1R,3R)-1-(6-fluoro-3-(2-((3-fluoropropyl)amino)ethoxy)-2-methylphenyl)-3-methyl-1,3,4,9-tetrahydro-2H-pyrido[3,4-b]indol-2-yl)propanoic acid] came in with a solubility at 24 h in data set [1] of 111 µM (≈ 57.9 µg/mL). In addition, the results for the IC50 in data set [2] and in data set [4] were 1.2 nM and 5.5 nM, respectively. Further, the “Human plasma protein binding (% free)” value in data set [5] worked out at 8.4 % free. The same molecule registered a logD in data set [3] of 1.8.
On to `Cc1c(OCCNCCCF)ccc(F)c1[C@@H]1c2[nH]c3ccccc3c2CC(C)(C)N1C[C@H](C)C(=O)O` [Example 134, (S)-3-((R)-1-(6-fluoro-3-(2-((3-fluoropropyl)amino)ethoxy)-2-methylphenyl)-3,3-dimethyl-1,3,4,9-tetrahydro-2H-pyrido[3,4-b]indol-2-yl)-2-methylpropanoic acid], for which, in data set [1], the solubility at 24 h is over 1000 µM. Moreover, the IC50 worked out at 5.8 nM in data set [2] and 1.6 nM in data set [4]. Also, the “Human plasma protein binding (% free)” value in data set [5] amounted to 36 % free. Moreover, the logD in data set [3] was 0.6. The “% downregulation (in brackets)” value in data set [4] came out at 85%.
As for `Cc1c(NCCNCCCF)ccc(F)c1[C@@H]1c2[nH]c3ccccc3c2C[C@@H](C)N1C[C@H](C)C(=O)O` [Example 135, (S)-3-((1R,3R)-1-(6-fluoro-3-((2-((3-fluoropropyl)amino)ethyl)amino)-2-methylphenyl)-3-methyl-1,3,4,9-tetrahydro-2H-pyrido[3,4-b]indol-2-yl)-2-methylpropanoic acid], the solubility at 24 h in data set [1] is over 1000 µM. The results for the IC50 in data set [2] and in data set [4] were 160 nM and 16 nM, respectively. Also, the “Human plasma protein binding (% free)” value in data set [5] amounted to 32 % free. Also, the logD in data set [3] was found to be 0.5.
For `Cc1c(N(C)CCNCCCF)ccc(F)c1[C@@H]1c2[nH]c3ccccc3c2C[C@@H](C)N1C[C@H](C)C(=O)O` [Example 136, (S)-3-((1R,3R)-1-(6-fluoro-3-((2-((3-fluoropropyl)amino)ethyl)(methyl)amino)-2-methylphenyl)-3-methyl-1,3,4,9-tetrahydro-2H-pyrido[3,4-b]indol-2-yl)-2-methylpropanoic acid] the same measures were 328 µM (≈ 168 µg/mL), 2 nM, over 300 nM, 2.1 % free and 1.1.
In data set [1], `C[C@@H]1Cc2c([nH]c3ccccc23)[C@@H](c2c(F)ccc(OCCN(C)CCCF)c2C(F)F)N1C[C@H](C)C(=O)O` [Example 148, (S)-3-((1R,3R)-1-(2-(difluoromethyl)-6-fluoro-3-(2-((3-fluoropropyl)(methyl)amino)ethoxy)phenyl)-3-methyl-1,3,4,9-tetrahydro-2H-pyrido[3,4-b]indol-2-yl)-2-methylpropanoic acid] displayed a solubility at 24 h of 788 µM (≈ 433 µg/mL). In addition, the IC50 in data set [2] came to 1.1 nM. Further, the “Human plasma protein binding (% free)” value in data set [5] turned out to be 10 % free. This molecule also registered a logD in data set [3] of 1.5. Besides, in data set [4], the IC50 worked out at 0.42 nM and the “% downregulation (in brackets)” value was found to be 68%.
On to `Cc1c(OCCN(C)CCCF)ccc(F)c1[C@@H]1c2[nH]c3ccccc3c2C[C@@H](C)N1CCC(=O)O` [Example 163, 3-((1R,3R)-1-(6-fluoro-3-(2-((3-fluoropropyl)(methyl)amino)ethoxy)-2-methylphenyl)-3-methyl-1,3,4,9-tetrahydro-2H-pyrido[3,4-b]indol-2-yl)propanoic acid], for which the solubility at 24 h in data set [1] is over 1000 µM. For the same molecule, the IC50 is 3.3 nM in data set [2] and 1.2 nM in data set [4]. In addition, in data set [5], the “Human plasma protein binding (% free)” value is 49 % free. The logD in data set [3] stood at 0.7.
